US9181248B2, “[1,2,4]triazolopyridines and their use as phosphodiesterase inhibitors” (LEO Pharma A/S, priority 2011, dated 2015)
pIC50: −log10 of the molar value.

Key:
[1] = system: TNF-α release in human peripheral blood mononuclear cells (PBMC); experiment: TNF-α release; conditions: 18 h, read-out: TNF-α release assay, IC50
Excerpt: Results are expressed as IC50 values (nM) calculated from inhibition curves using as positive controls the secretion in LPS stimulated wells and as negative controls the secretion in unstimulated cells.

[2] = Human whole blood (WB) assay; assay type: in vitro ADME; conditions: pH 7.4, 1 μM compound, 37° C., average of 2 to 4 tests, read-out: WB assay, half-life T½
Procedure: Incubations of test compounds in DMSO, diluted with phosphate buffer, pH 7.4, at 1 μM were carried out with human whole blood. The percentage of organic solvent in the incubations was 1%. The incubations were performed at 37° C. with aliquots taken at 0, 15, 30, 60 and 120 minutes, and reactions were terminated by addition of methanol containing analytical internal standard (IS). The results were expressed as half-life (T½) in minutes calculated from the rate constant (k) (min^−1) of test compound depletion.

[3] = Keratinocyte stability (KC) assay; assay type: in vitro ADME; conditions: pH 7.4; plated human keratinocytes, 1 μM compound, 37° C.; average of 2 to 4 tests; read-out: KC assay, half-life T½
Procedure: Incubations of test compounds in DMSO, diluted with growing medium, pH ˜7.4, at 1 μM were carried out with plated human keratinocytes. The percentage of organic solvent in the incubations was 0.5%. The incubations were performed at 37° C. with aliquots taken at 0, 60, 120, 240 and 1440 minutes, and reactions were terminated by addition of methanol containing analytical internal standard (IS). The results were expressed as half-life (T½) in minutes calculated from the rate constant (k) (min^−1) of test compound depletion.

Compound | pIC50 [1] | half-life at 1 μM [2] [min] | half-life at 1 μM [3] [min]
CC[C@H](C)OC(=O)C1(c2nc3c(OC)ccc(-c4ccc5c(c4)COC5=O)n3n2)CC1 [Compound 1, [(1S)-1-Methylpropyl]1-[8-methoxy-5-(1-oxo-3H-isobenzofuran-5-yl)-[1,2,4]triazolo-[1,5-a]pyridin-2-yl]cyclopropanecarboxylate] | 7.89 | 10.7 | > 720
CC[C@@H](C)OC(=O)C1(c2nc3c(OC)ccc(-c4ccc5c(c4)COC5=O)n3n2)CC1 [Compound 2, [(1R)-1-Methylpropyl]1-[8-methoxy-5-(1-oxo-3H-isobenzofuran-5-yl)-[1,2,4]triazolo-[1,5-a]pyridin-2-yl]cyclopropanecarboxylate] | 7.80 | 12.6 | > 720
COc1ccc(-c2ccc3c(c2)COC3=O)n2nc(C3(C(=O)OCC(C)C)CC3)nc12 [Compound 3, [2-Methylpropyl]1-[8-methoxy-5-(1-oxo-3H-isobenzofuran-5-yl)-[1,2,4]triazolo[1,5-a]pyridin-2-yl]cyclopropanecarboxylate] |  | 16.6 | > 720
COc1ccc(-c2ccc3c(c2)COC3=O)n2nc(C3(C(=O)OC(C)(C)C)CC3)nc12 [Compound 4, Tert-butyl 1-[8-methoxy-5-(1-oxo-3H-isobenzofuran-5-yl)-[1,2,4]triazolo[1,5-a]pyridin-2-yl]cyclopropanecarboxylate] | 7.82 | < 11.2 | > 720
